Reference: patent US20190183963A1, “PROCESS FOR THE SYNCHRONIZATION OF OVULATION FOR TIMED BREEDING WITHOUT HEAT DETECTION” (priority 2003, published 2019)

Assays:
Assay type in all cases: in vivo, swine
[1] = tested on: ovariectomized estrogen primed gilt model; assay: Dose response study of deslorelin in SAIB, LH release determined by RIA; conditions: single injection of 50 mcg
Description: A dose response study was performed using deslorelin in SAIB in an ovariectomized estrogen primed gilt model (Barb, et al. (1999) Proceed. Int'l. Symp. Control. Rel. Bioact. Mater., 26).

mature postpartum sows = assay: Intravulvar deslorelin in SAIB at estrus detection, AI breeding of mature postpartum sows; conditions: 50 μg intravulvar at first estrus detection
Description: Sows were assigned randomly in blocks of two to either control or to be injected intravulvar with 50 mcg of deslorelin in SAIB at the time of estrus detection for sows first detected in estrus in the a.m. and 12 hours later for those first detected in estrus in the p.m. Treated animals were bred AI upon detected estrus and again 24 hours later if still in estrus. Controls received a saline injection on first detected estrus behavior estrus detection and were bred according to the farm's normal procedures.

postpartum sows = assay: Single timed deslorelin in SAIB injection 96 hours post-weaning, single timed insemination without estrus detection
Description: Approximately 170 postpartum sows were randomly divided into two equal groups comprised of controls and treated. Following weaning, the controls were detected for estrus and bred following the normal standard operating procedures for the farms on which they resided. The treated sows received a 50 mcg dose of deslorelin in SAIB at 96 hours post-weaning and were bred with a single insemination 28+/−2 hours later with no regard to estrus detection. The sows were examined for pregnancy by ultrasound at 21 days and slaughtered around 28 days post breeding. The entire reproductive tract was removed and corpora lutea and embryos were counted.

For `CCNC(=O)[C@@H]1CCCN1C(=O)[C@H](CCCN=C(N)N)NC(=O)[C@H](CC(C)C)NC(=O)[C@@H](Cc1c[nH]c2ccccc12)NC(=O)[C@H](Cc1ccc(O)cc1)NC(=O)[C@H](CO)NC(=O)[C@H](Cc1c[nH]c2ccccc12)NC(=O)[C@H](Cc1cnc[nH]1)NC(=O)[C@@H]1CCC(=O)N1` [Deslorelin, deslorelin], the “time at which LH returned to base level” value [1] was no more than 18 h, the “LH peak relative to normal value” ([1]; normal value from Hansel et al. 1973) was “about twice normal value” and the “Length of Estrus (Hrs.)” value (mature postpartum sows; AI, AI again if in estrus the next day) was 40.81 (n = 69) Hrs. The “Live piglet number per litter, greater in Deslorelin versus Saline sows” value (mature postpartum sows; difference to saline control, listed as deslorelin in SAIB) was 0.6, the “Sows Pregnant” value (postpartum sows; 50 mcg at 96 hours post-weaning, single insemination 28+/-2 hours later, 84 in group, ultrasound at 21 days) was 60 and the “pregnancy rates (in words)” value (postpartum sows; single timed injection post-weaning, single timed insemination, no estrus detection) was “normal pregnancy rates”.
